Experimental data reported in PubChem BioAssay AID248 (DTP/NCI, 2004).
Several values for one entry are separate records, joined by “and”; a condition that tells them apart may be missing. Equal entries are not always repeated. Toxic doses and inconclusive results are not listed. No stated cut-off is given here; in the data, active means T/C of 150% or more; inactive means T/C below 125%.

Tested on: L1210 leukemia ip in BDF1 mice, survival T/C
Test: NCI In Vivo Anticancer Drug Screen. Data for tumor model L1210 Leukemia (intraperitoneal) in B6D2F1 (BDF1) mice
Settings: endpoint: mean survival time, higher = longer survival
Method in brief: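 In this screen, tumor-bearing mice given compound are compared to those given vehicle, and their survival values are reported as a treated-to-control quotient.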

[1] = dose: 100.0 mg/kg/injection, schedule: Q01DX001 (ip), vehicle: carboxymethylcellulose (CMC)
[2] = dose: 100.0 mg/kg/injection, schedule: Q04DX002 (ip), vehicle: saline with Tween-80
[3] = dose: 200.0 mg/kg/injection, schedule: Q01DX001 (ip), vehicle: carboxymethylcellulose (CMC)
[4] = dose: 200.0 mg/kg/injection, schedule: Q04DX002 (ip), vehicle: saline with Tween-80
[5] = dose: 400.0 mg/kg/injection, schedule: Q01DX001 (ip), vehicle: carboxymethylcellulose (CMC)
[6] = dose: 400.0 mg/kg/injection, schedule: Q04DX002 (ip), vehicle: saline with Tween-80
[7] = dose: 50.0 mg/kg/injection, schedule: Q01DX001 (ip), vehicle: carboxymethylcellulose (CMC)
[8] = dose: 100.0 mg/kg/injection, schedule: Q01DX001 (ip), vehicle: saline
[9] = dose: 100.0 mg/kg/injection, schedule: Q01DX009 (ip), vehicle: saline with Tween-80
[10] = dose: 200.0 mg/kg/injection, schedule: Q01DX009 (ip), vehicle: saline with Tween-80
[11] = dose: 400.0 mg/kg/injection, schedule: Q01DX009 (ip), vehicle: saline with Tween-80
[12] = dose: 100.0 mg/kg/injection, schedule: Q04DX003 (ip), vehicle: saline with Tween-80
[13] = dose: 200.0 mg/kg/injection, schedule: Q04DX003 (ip), vehicle: saline with Tween-80
[14] = dose: 400.0 mg/kg/injection, schedule: Q04DX003 (ip), vehicle: saline with Tween-80

Measured: T/C

CC1(C)CC(=O)CC(=C2C(=O)NC(=O)NC2=O)C1
inactive: [1] 89 % of control | dose: 100.0 mg/kg/injection, schedule: Q01DX002 (ip), vehicle: saline with Tween-80 92 % of control | [2] 103 % of control | [3] 92 % of control | dose: 200.0 mg/kg/injection, schedule: Q01DX002 (ip), vehicle: saline with Tween-80 98 % of control | [4] 111 % of control | [5] 87 % of control | dose: 400.0 mg/kg/injection, schedule: Q01DX002 (ip), vehicle: saline with Tween-80 95 % of control | [6] 100 % of control

COCCCNCC(=O)N1CCN(C(=O)CNCCCOC)CC1
inactive: [7] 92 % of control | [1] 92 % of control | [3] 92 % of control | [5] 95 % of control

CC(=O)N1C(=O)/C(=C\c2cc3c(cc2Br)OCO3)c2cc3c(cc21)OCO3
inactive: dose: 50.0 mg/kg/injection, schedule: Q01DX001 (ip), vehicle: saline 118 % of control | [8] 100 % of control | dose: 200.0 mg/kg/injection, schedule: Q01DX001 (ip), vehicle: saline 106 % of control | dose: 400.0 mg/kg/injection, schedule: Q01DX001 (ip), vehicle: saline 106 % of control

O=C1OC(c2cccc([N+](=O)[O-])c2)=N/C1=C\c1ccccc1
inactive: [9] 94 % of control | [10] 102 % of control | [11] 94 % of control

COc1cc(C=Nc2cccc(C(=O)O)c2)ccc1N(CCCl)CCCl
inactive: [7] 117 % of control

O=C1O/C(=C/Br)C=C1Br
inactive: dose: 3.12 mg/kg/injection, schedule: Q04DX003 (ip), vehicle: saline with Tween-80 95 % of control | dose: 6.25 mg/kg/injection, schedule: Q04DX003 (ip), vehicle: saline with Tween-80 92 % of control | dose: 12.5 mg/kg/injection, schedule: Q04DX003 (ip), vehicle: saline with Tween-80 92 % of control | dose: 12.5 mg/kg/injection, schedule: Q04DX003 (ip), vehicle: saline 100 % of control | dose: 25.0 mg/kg/injection, schedule: Q04DX003 (ip), vehicle: saline 97 % of control

CN(C)CCOC(=O)c1ccc(CBr)cc1
inactive: dose: 10.0 mg/kg/injection, schedule: Q01DX009 (ip), vehicle: saline 97 % of control | dose: 20.0 mg/kg/injection, schedule: Q01DX009 (ip), vehicle: saline 95 % of control | dose: 40.0 mg/kg/injection, schedule: Q01DX009 (ip), vehicle: saline 93 % of control | dose: 87.5 mg/kg/injection, schedule: Q01DX009 (ip), vehicle: saline 101 % of control

O=C(O)C1C2CCC(O2)C1C(=O)O (stereo unspecified)
inactive: [1] 91 % of control | [12] 100 % of control | [3] 88 % of control | [13] 96 % of control | [14] 102 % of control

CC1(C)N=C(N)N=C(N)N1c1ccc(C#N)cc1
inactive: [8] 100 % of control

c1ccc2c(c1)ccc1[s+]cccc12
inactive: dose: 100.0 mg/kg/injection, schedule: Q04DX003 (ip), vehicle: acetone 100 % of control | dose: 200.0 mg/kg/injection, schedule: Q04DX003 (ip), vehicle: acetone 105 % of control

CCCCCCCCCCCCOc1ccccc1C=O
inactive: dose: 100.0 mg/kg/injection, schedule: Q04DX003 (ip), vehicle: Klucel (hydroxypropylcellulose) (HPC) 101 % of control | dose: 200.0 mg/kg/injection, schedule: Q04DX003 (ip), vehicle: Klucel (hydroxypropylcellulose) (HPC) 106 % of control | dose: 400.0 mg/kg/injection, schedule: Q04DX003 (ip), vehicle: Klucel (hydroxypropylcellulose) (HPC) 96 % of control

O=C(NC(=S)Nc1ccc(S(=O)(=O)c2ccc(NC(=S)NC(=O)c3ccccc3)cc2)cc1)c1ccccc1
inactive: dose: 100.0 mg/kg/injection, schedule: Q01DX009 (ip), vehicle: Klucel (hydroxypropylcellulose) (HPC) 102 % of control | dose: 100.0 mg/kg/injection, schedule: Q04DX002 (ip), vehicle: Klucel (hydroxypropylcellulose) (HPC) 94 % of control | dose: 200.0 mg/kg/injection, schedule: Q01DX009 (ip), vehicle: Klucel (hydroxypropylcellulose) (HPC) 94 % of control | dose: 200.0 mg/kg/injection, schedule: Q04DX002 (ip), vehicle: Klucel (hydroxypropylcellulose) (HPC) 94 % of control | dose: 400.0 mg/kg/injection, schedule: Q01DX009 (ip), vehicle: Klucel (hydroxypropylcellulose) (HPC) 91 % of control | dose: 400.0 mg/kg/injection, schedule: Q04DX002 (ip), vehicle: Klucel (hydroxypropylcellulose) (HPC) 102 % of control

CC(C)(C)c1ccc(SCN(CSc2ccc(C(C)(C)C)cc2)Cc2ccccc2)cc1
inactive: dose: 100.0 mg/kg/injection, schedule: Q01DX001 (ip), vehicle: other 105 % of control | dose: 200.0 mg/kg/injection, schedule: Q01DX001 (ip), vehicle: other 100 % of control | dose: 400.0 mg/kg/injection, schedule: Q01DX001 (ip), vehicle: other 94 % of control

O=C(O)CSC(C(=O)O)c1ccccc1 (stereo unspecified)
inactive: dose: 50.0 mg/kg/injection, schedule: Q01DX009 (ip), vehicle: saline with Tween-80 93 % of control | [9] 92 % of control | [12] 94 % of control | [10] 93 % of control | [13] 97 % of control

COc1ccc(-n2c(O)c(N=Nc3ccc(Cl)cc3)c(=O)n(-c3ccccc3)c2=S)cc1
inactive: dose: 37.5 mg/kg/injection, schedule: Q01DX001 (ip), vehicle: Klucel (hydroxypropylcellulose) (HPC) 89 % of control | dose: 75.0 mg/kg/injection, schedule: Q01DX001 (ip), vehicle: Klucel (hydroxypropylcellulose) (HPC) 94 % of control | dose: 150.0 mg/kg/injection, schedule: Q01DX001 (ip), vehicle: Klucel (hydroxypropylcellulose) (HPC) 92 % of control

Cc1ccc2no[n+]([O-])c2c1
inactive: dose: 20.0 mg/kg/injection, schedule: Q01DX009 (ip), vehicle: Klucel (hydroxypropylcellulose) (HPC) 111 % of control | dose: 40.0 mg/kg/injection, schedule: Q01DX009 (ip), vehicle: Klucel (hydroxypropylcellulose) (HPC) 108 % of control

NC(N)=N/N=C/c1ccccc1Cl
inactive: dose: 4.0 mg/kg/injection, schedule: Q01DX Z (ip), vehicle: saline 97 % of control | dose: 8.0 mg/kg/injection, schedule: Q01DX Z (ip), vehicle: saline 97 % of control | dose: 16.0 mg/kg/injection, schedule: Q01DX Z (ip), vehicle: saline 102 % of control

Cc1ccc(C[n+]2cccc(NC(=O)COc3ccc(Cl)c(Cl)c3)c2)cc1
inactive: [12] 95 % of control | [13] 93 % of control | [14] 98 % of control

Cc1ncn[nH]1
inactive: dose: 100.0 mg/kg/injection, schedule: Q04DX002 (ip), vehicle: saline 96 % of control | dose: 200.0 mg/kg/injection, schedule: Q04DX002 (ip), vehicle: saline 100 % of control | dose: 400.0 mg/kg/injection, schedule: Q04DX002 (ip), vehicle: saline 89 % of control

CC(NC(=O)c1ccccc1)C(=O)NC(CSC(c1ccccc1)c1ccccc1)C(=O)O (stereo unspecified)
inactive: dose: 25.0 mg/kg/injection, schedule: Q01DX009 (ip), vehicle: saline 102 % of control | dose: 50.0 mg/kg/injection, schedule: Q01DX009 (ip), vehicle: saline 100 % of control | dose: 100.0 mg/kg/injection, schedule: Q01DX009 (ip), vehicle: saline 93 % of control and 90 % of control | dose: 100.0 mg/kg/injection, schedule: Q04DX003 (ip), vehicle: saline 94 % of control | dose: 200.0 mg/kg/injection, schedule: Q04DX003 (ip), vehicle: saline 100 % of control

COC(=O)c1ccccc1NC(=O)Nc1cc(Cl)ccc1C
inactive: dose: 100.0 mg/kg/injection, schedule: Q01DX001 (ip), vehicle: saline with Tween-80 87 % of control | [9] 91 % of control and 92 % of control | [2] 95 % of control and 88 % of control | [12] 101 % of control | dose: 200.0 mg/kg/injection, schedule: Q01DX001 (ip), vehicle: saline with Tween-80 90 % of control | [10] 93 % of control and 94 % of control | [4] 88 % of control and 91 % of control | [13] 92 % of control | dose: 400.0 mg/kg/injection, schedule: Q01DX001 (ip), vehicle: saline with Tween-80 88 % of control | [11] 94 % of control and 101 % of control | [6] 93 % of control and 91 % of control | [14] 90 % of control
